According to article PMC10831936 (iScience, 2024):
Values joined by “and” are separate entries in the source; they are usually repeats but may differ in a detail not shown here. Identical values can stand only once. Counter-ions that a name gives are not always drawn. Like-named read-outs stand apart in the source and are kept apart here. Values belong to the molecule of their own block, whether it stands above or below them.

Tests used:
[1] = test system: ERBB receptors, HTR2A, and downstream signaling pathways; assay: ERBBprofiler multiplexed barcoded assay, overall statements across all receptor batches and sensors; details: PC12 cells, stimulation mix
ERBB4 NFAT = assay: ERBBprofiler barcoded NFAT pathway sensor, ERBB4 co-transfected; assay type: cell-based, Rattus norvegicus
HTR2A NFAT = assay: ERBBprofiler barcoded NFAT pathway sensor, HTR2A co-transfected; details: for IC50: Rattus norvegicus, PC-12, 6 h, read-out: HTR2A NFAT IC50
ERBB4 EGR1p = assay: ERBBprofiler barcoded EGR1p pathway sensor, ERBB4 co-transfected; details: for IC50: Rattus norvegicus, PC-12, 6 h, read-out: ERBB4 EGR1p IC50; for EGR1p (ERBB4) activity EC50 (barcode): agonist dose response, PC12 cells, ERBB4 co-transfected, barcode readout
ERBB2/3 EGR1p = assay: ERBBprofiler barcoded EGR1p pathway sensor, ERBB2/3 co-transfected; details: read-out: ERBB2/3 EGR1p IC50
ERBB2 [2] = test system: ERBB2; design: method as in Schaefer et al., 2007; details: phospho-WB in NR6 cells; ref Schaefer et al., 2007; read-out: IC50_Literature, ERBB2; cited from earlier work
ERBB4 [3] = details: read-out: IC50_Literature, ERBB4; cell viability overexpressing ERBB4 variants; ref Chakroborty et al., 2022; cited from earlier work
ERK (MAPK) = test system: ERK (MAPK); design: method as in Schaefer et al., 2007; details: phospho-WB in NR6 cells; ref Schaefer et al., 2007; read-out: IC50_Literature, ERK (MAPK); cited from earlier work
ERBB2 [4] = details: read-out: IC50_Literature, ERBB2; cited from earlier work
EGFR EGR1p = assay: ERBBprofiler barcoded EGR1p pathway sensor, EGFR co-transfected; details: read-out: EGFR EGR1p IC50
ERBB3 = details: read-out: IC50_Literature, ERBB3; cited from earlier work
HTR2A EGR1p = assay: ERBBprofiler barcoded EGR1p pathway sensor, HTR2A co-transfected; details: read-out: HTR2A EGR1p IC50
EGFR NFAT = assay: ERBBprofiler barcoded NFAT pathway sensor, EGFR co-transfected; assay type: cell-based, Rattus norvegicus
cAMP = assay: GloSensor cAMP assay in PC12 cells; assay type: cell-based, Rattus norvegicus; details: Rattus norvegicus, PC-12, 0.25 h, constant stimulation mix, 15 min, cAMP increase
CRE sensor = CRE sensor only luciferase assay in PC12 cells; assay type: cell-based, Rattus norvegicus
ERBB2 [5] = test system: ERBB2; design: method as in La Monica et al., 2017; details: phospho-WB in PC9/HER2c1 cells; ref La Monica et al., 2017; read-out: IC50_Literature, ERBB2; cited from earlier work
calcium = assay: Fluo-4 AM calcium assay in PC12 cells; assay type: cell-based, Rattus norvegicus; details: stimulation mix
ERBB4 [6] = test system: ERBB4; design: method as in Cross et al., 2014; details: commercial biochemical kinome panel (Millipore); ref Cross et al., 2014; read-out: IC50_Literature, ERBB4; cited from earlier work
EGFR [7] = details: read-out: IC50_Literature, EGFR; phospho-WB in Cos 7 cells; ref Floc'h et al., 2020; cited from earlier work
NFAT (HTR2A) = assay: NFAT pathway sensor luciferase assay, HTR2A transfected; assay type: cell-based, Rattus norvegicus; details: agonist dose response, PC12 cells, luciferase readout
Experimental: (§1) 50,000 PC12 cells were seeded per 96-well onto poly-L-lysin (PLL)-coated plates and transfected the following day (day in vitro 1, DIV1) with assay plasmids using Lipofectamine 3000 (Thermo Fisher Scientific). For split TEV assays, plasmids (pcDNA3 or pTag4C backbone) encoding receptor-NTEV-tcs-GV, GRB2-SH2-CTEV (for ERBB receptors) or ARBB2-1-383-CTEV (for HTR2A) (all 10 ng/well), and the p10xUAS-luc2 reporter plasmid (10 ng/well) were used. For pathway assays, the receptor plasmids (15 ng/well) and pathway reporter plasmids (15 ng/well) pEGR1p-luc2 for monitoring MAPK signaling, pCRE-CMVmin-luc2 for monitoring cAMP/Ca^2+ signaling, or p6xNFAT-CMVmin-luc2 for Ca^2+ signaling were used. Transient transfections were conducted according to the manufacturer’s instructions. On DIV2, cells were starved in medium containing 1% FCS for 16 h. […] In the case of antagonist assays, compounds were added at increasing doses together with the stimulus. Cells were lysed in 1x passive lysis buffer (Promega) and subjected to a firefly luciferase assay using a self-made substrate for firefly luciferase.[100] Luciferase activity was analyzed in a Mithras LB 940 Multimode Microplate Reader (Berthold Technologies). All assays were run in 96-well plates using six replicates per condition.

[8] = test system: CRE (cAMP/Ca2+ signaling); assay: ERBBprofiler barcoded CRE sensor only (no receptor transfected); details: Rattus norvegicus, PC-12, read-out: CRE EC50 (barcode)
HTR2A CRE = assay: ERBBprofiler barcoded CRE pathway sensor, HTR2A co-transfected; details: read-out: CRE (HTR2A) activity EC50 (barcode); agonist dose response, PC12 cells, HTR2A co-transfected, barcode readout
CRE (HTR2A) = assay: CRE pathway sensor luciferase assay, HTR2A transfected; assay type: cell-based, Rattus norvegicus; details: agonist dose response, PC12 cells, luciferase readout
Experimental: as §1

EGFR CRE = assay: ERBBprofiler barcoded CRE pathway sensor, EGFR co-transfected; details: Rattus norvegicus, PC-12, 6 h, read-out: EGFR CRE IC50
ERBB2/3 = ERBB2/3 (Homo sapiens, UniProt P04626+P21860); assay: ERBBprofiler barcoded split TEV assay, ERBB2/3
ERBB2/3 CRE = assay: ERBBprofiler barcoded CRE pathway sensor, ERBB2/3 co-transfected; details: Rattus norvegicus, PC-12, 6 h, read-out: ERBB2/3 CRE IC50
EGFR [9] = molecular target: EGFR (Homo sapiens, UniProt P00533); assay: ERBBprofiler barcoded split TEV assay, EGFR
EGR1p (ERBB4) = assay: EGR1p pathway sensor luciferase assay, ERBB4 transfected; assay type: cell-based, Rattus norvegicus; details: agonist dose response, PC12 cells, luciferase readout
Experimental: as §1

[10] = molecular target: EGR1p (MAPK/ERK signaling); assay: ERBBprofiler barcoded EGR1p sensor only (no receptor transfected); details: agonist dose response, PC12 cells, barcode readout
[11] = molecular target: EGR1p (MAPK signaling), EGFR; assay: EGR1p pathway sensor luciferase assay, EGFR; assay type: cell-based, Rattus norvegicus; details: agonist dose response, PC12 cells, luciferase readout
Experimental: as §1

ERBB4 [12] = molecular target: T1, ERBB4 (Homo sapiens, UniProt Q15303); assay: ERBBprofiler barcoded split TEV assay, ERBB4; details: agonist dose response, PC12 cells, 6 h, split TEV, barcode readout
ERBB4 [13] = molecular target: T1, ERBB4; assay: Split TEV firefly luciferase assay, ERBB4; assay type: cell-based; details: agonist dose response, PC12 cells, split TEV, luciferase readout
Experimental: as §1

T1 sequence (Q15303 26-1308): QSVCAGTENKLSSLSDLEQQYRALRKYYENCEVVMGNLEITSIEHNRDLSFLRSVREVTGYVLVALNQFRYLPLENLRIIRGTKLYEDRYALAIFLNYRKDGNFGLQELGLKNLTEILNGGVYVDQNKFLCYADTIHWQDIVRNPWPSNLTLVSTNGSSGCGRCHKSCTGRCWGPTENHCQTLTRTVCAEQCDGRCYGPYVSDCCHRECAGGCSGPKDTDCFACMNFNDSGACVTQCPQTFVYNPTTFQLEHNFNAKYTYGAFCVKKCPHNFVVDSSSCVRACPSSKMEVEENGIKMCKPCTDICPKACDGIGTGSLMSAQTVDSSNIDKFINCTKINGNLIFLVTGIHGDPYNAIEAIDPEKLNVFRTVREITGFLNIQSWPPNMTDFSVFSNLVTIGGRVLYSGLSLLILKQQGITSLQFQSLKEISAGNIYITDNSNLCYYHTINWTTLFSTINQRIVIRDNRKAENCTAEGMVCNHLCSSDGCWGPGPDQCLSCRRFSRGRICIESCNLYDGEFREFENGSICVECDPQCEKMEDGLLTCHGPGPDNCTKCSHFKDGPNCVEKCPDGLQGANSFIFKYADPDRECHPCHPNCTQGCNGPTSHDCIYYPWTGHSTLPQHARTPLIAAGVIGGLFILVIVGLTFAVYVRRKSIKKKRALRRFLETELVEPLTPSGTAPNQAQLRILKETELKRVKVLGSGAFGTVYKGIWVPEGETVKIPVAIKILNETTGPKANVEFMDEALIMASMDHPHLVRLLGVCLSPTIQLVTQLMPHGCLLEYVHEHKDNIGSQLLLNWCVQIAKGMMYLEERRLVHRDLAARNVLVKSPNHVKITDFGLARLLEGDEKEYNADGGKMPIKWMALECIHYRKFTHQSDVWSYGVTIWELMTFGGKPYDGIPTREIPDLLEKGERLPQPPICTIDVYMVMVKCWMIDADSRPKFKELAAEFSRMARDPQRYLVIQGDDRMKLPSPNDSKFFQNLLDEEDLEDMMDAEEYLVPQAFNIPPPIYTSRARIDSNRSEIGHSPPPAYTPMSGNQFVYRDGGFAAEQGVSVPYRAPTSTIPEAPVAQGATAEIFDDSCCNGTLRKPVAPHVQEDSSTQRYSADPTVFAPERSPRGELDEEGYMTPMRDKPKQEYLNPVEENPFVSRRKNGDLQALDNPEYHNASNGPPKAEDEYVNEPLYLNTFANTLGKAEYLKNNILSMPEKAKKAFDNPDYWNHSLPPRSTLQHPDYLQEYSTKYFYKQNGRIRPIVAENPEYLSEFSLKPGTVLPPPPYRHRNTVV
Sequence of EGFR (P00533 25-1210): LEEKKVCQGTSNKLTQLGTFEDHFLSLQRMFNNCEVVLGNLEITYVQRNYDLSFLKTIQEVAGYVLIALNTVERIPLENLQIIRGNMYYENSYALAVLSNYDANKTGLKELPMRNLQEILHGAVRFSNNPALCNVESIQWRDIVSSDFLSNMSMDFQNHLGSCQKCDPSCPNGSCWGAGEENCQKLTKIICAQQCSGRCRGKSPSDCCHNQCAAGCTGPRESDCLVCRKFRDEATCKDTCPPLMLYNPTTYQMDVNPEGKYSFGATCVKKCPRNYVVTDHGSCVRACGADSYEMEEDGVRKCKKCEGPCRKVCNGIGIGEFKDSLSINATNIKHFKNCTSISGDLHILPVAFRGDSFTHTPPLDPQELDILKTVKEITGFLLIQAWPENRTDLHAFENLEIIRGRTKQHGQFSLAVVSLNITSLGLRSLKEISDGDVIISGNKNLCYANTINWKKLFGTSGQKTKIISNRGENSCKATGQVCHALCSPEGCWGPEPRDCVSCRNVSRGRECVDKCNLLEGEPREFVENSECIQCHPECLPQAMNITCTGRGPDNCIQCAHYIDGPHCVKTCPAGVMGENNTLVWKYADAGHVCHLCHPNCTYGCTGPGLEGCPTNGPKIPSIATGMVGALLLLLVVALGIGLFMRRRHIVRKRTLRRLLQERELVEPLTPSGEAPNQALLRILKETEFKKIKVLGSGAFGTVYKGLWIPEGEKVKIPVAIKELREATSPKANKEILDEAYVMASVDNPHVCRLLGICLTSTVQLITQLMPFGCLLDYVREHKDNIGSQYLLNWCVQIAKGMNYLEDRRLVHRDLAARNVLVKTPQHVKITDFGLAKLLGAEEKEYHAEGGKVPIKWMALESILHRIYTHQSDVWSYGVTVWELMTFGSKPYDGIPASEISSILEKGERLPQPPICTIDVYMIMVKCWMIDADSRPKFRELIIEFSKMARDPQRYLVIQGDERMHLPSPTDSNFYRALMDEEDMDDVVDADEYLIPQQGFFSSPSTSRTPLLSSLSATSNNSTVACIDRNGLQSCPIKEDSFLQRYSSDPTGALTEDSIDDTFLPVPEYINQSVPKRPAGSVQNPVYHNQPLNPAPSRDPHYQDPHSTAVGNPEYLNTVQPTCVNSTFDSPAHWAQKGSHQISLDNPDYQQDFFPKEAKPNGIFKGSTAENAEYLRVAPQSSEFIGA

Molecule: C[C@]12CCC(=O)C=C1C=C[C@@H]1[C@@H]2CC[C@@]2(C)[C@H]1CC[C@@]21CCC(=O)O1 [Canrenone]
CRE sensor response at high compound concentration (barcoded) ([1]; 10 μM compound): upregulated CRE sensor response
inhibition of ERBB receptors and pathways (barcoded ERBBprofiler), in words [1]: did not inhibit any ERBB receptor nor pathway monitored

Molecule: C#Cc1cccc(Nc2ncnc3cc(OCCOC)c(OCCOC)cc23)c1 [Erlotinib, Erlotinib hydrochloride]
ERBB4 NFAT IC50 (ERBB4 NFAT): no effect (EGFR, ERBB2/3, ERBB4), 0.098 µM (HTR2A, small effect)
IC50 (HTR2A NFAT): 98 nM
IC50 (ERBB4 EGR1p): 698 nM
IC50 (ERBB2/3 EGR1p; Rattus norvegicus, PC-12, 6 h): 304 nM
IC50 (ERK (MAPK)): 160 to 290 nM

Molecule: C=CC(=O)Nc1cc(Nc2nccc(-c3cn(C)c4ccccc34)n2)c(OC)cc1N(C)CCN(C)C [Osimertinib, Osimertinib (AZD9291)]
EC50 (cAMP): 3910 nM
effect on CRE sensor activity (luciferase), in words (CRE sensor; PC12 cells, CRE sensor only, stimulation mix): CRE sensor activation at high compound concentrations
EC50 (CRE sensor; Rattus norvegicus, PC-12): 3010 nM
ERBB4 NFAT IC50 (ERBB4 NFAT): no effect (EGFR, ERBB2/3, ERBB4) - 0.772 µM (HTR2A)
IC50 (EGFR EGR1p; Rattus norvegicus, PC-12, 6 h): 80 nM
IC50 (HTR2A EGR1p; Rattus norvegicus, PC-12, 6 h): 109 nM
IC50 (HTR2A NFAT): 772 nM
EGFR NFAT IC50 (EGFR NFAT): no effect (EGFR, ERBB2/3, ERBB4) - 0.772 µM (HTR2A)
IC50 (ERBB4 EGR1p): 37 nM
IC50 (ERBB2/3 EGR1p; Rattus norvegicus, PC-12, 6 h): 56 nM
effect on calcium levels (Fluo-4 AM) (calcium): but not calcium levels

Molecule: CC(=O)S[C@@H]1CC2=CC(=O)CC[C@]2(C)[C@H]2CC[C@@]3(C)[C@@H](CC[C@@]34CCC(=O)O4)[C@H]12 [Spironolactone]
IC50 (EGFR CRE): 8.41 nM
IC50 (ERBB2/3): > 10000 nM
IC50 (ERBB4 EGR1p): > 10000 nM
IC50 (ERBB2/3 CRE): 905 nM
IC50 (EGFR [9]): > 10000 nM

Molecule: Heregulin-β1 (EGF Domain) human (EGF-like domain) [EGFld]
EGR1p (ERBB4) activity EC50 (luciferase) (EGR1p (ERBB4)): 0.384 ng/mL
EGR1p (ERBB4) activity EC50 (barcode) (ERBB4 EGR1p): 0.607 ng/mL

B1: Heregulin-β1 (EGF Domain) human (EGF-like domain) (protein)
chain: TSHLVKCAEKEKTFCVNGGECFMVKDLSNPSRYLCKCPNEFTGDRCQNYVMASFYKHLGIEFMEAEELYQK
modifications: three disulfides
notes: EGF-like domain, ligand for ERBB3 and ERBB4
ERBB4 activity EC50 (barcode) (ERBB4 [12]): 1.372 ng/mL
ERBB2/3 EC50 (barcode) (ERBB2/3; agonist dose response, PC12 cells, 6 h, split TEV, barcode readout): 0.143 ng/mL
ERBB4 activity EC50 (luciferase) (ERBB4 [13]): 0.700 ng/mL

Further lines, with some results ahead:

IC50 (EGFR EGR1p; Rattus norvegicus, PC-12, 6 h): 244 nM
IC50 (EGFR EGR1p): 122 nM and 122 to 244 nM
IC50 (HTR2A EGR1p; Rattus norvegicus, PC-12, 6 h): 45 nM
IC50 (HTR2A EGR1p): 34 nM and 34 to 45 nM
IC50 (ERBB2/3 EGR1p; Rattus norvegicus, PC-12, 6 h): 41 nM
IC50 (ERBB2/3 EGR1p): 71 nM and 41 to 71 nM
Molecule: CS(=O)(=O)CCNCc1ccc(-c2ccc3ncnc(Nc4ccc(OCc5cccc(F)c5)c(Cl)c4)c3c2)o1 [Lapatinib, Lapatinib (GW-572016) Ditosylate]
ERBB4 NFAT IC50 (ERBB4 NFAT): no effect (EGFR, ERBB2/3, ERBB4), 0.352 - 4.531 µM (HTR2A)
EGFR NFAT IC50 (EGFR NFAT): no effect (EGFR, ERBB2/3, ERBB4), 0.352 - 4.531 µM (HTR2A)

EC50 (NFAT (HTR2A)): 61 nM
EC50 [8]: 167 nM
EC50 (HTR2A CRE): 164 nM
EC50 (HTR2A NFAT; read-out: NFAT (HTR2A) activity EC50 (barcode), agonist dose response, PC12 cells, HTR2A co-transfected, barcode readout): 73 nM
EC50 (CRE (HTR2A)): 465 nM
Molecule: NCCc1c[nH]c2ccc(O)cc12 [Serotonin, Serotonin hydrochloride]

EGR1p activity EC50 (barcode) [10]: 0.089 ng/mL
EGR1p (ERBB4) activity EC50 (barcode) (ERBB4 EGR1p): 0.093 ng/mL
EGR1p activity EC50 (luciferase) [11]: 0.161 ng/mL
Molecule: hEGF
